Among the data in US20240383893A1, “Hydroxamic Acid Compound Having ENPP1 Inhibitory Activity and Use Thereof” (Haihe Biopharma Co., Ltd., priority 2021, published 2024) are IC50 values, retold here.

The structures appear in SMILES notation.

For the assay, the target named is ENPP1 (hENPP1-ECD-His) (Homo sapiens (Human), UniProt P22413).
Chain of ENPP1 (hENPP1-ECD-His) (P22413 98-925): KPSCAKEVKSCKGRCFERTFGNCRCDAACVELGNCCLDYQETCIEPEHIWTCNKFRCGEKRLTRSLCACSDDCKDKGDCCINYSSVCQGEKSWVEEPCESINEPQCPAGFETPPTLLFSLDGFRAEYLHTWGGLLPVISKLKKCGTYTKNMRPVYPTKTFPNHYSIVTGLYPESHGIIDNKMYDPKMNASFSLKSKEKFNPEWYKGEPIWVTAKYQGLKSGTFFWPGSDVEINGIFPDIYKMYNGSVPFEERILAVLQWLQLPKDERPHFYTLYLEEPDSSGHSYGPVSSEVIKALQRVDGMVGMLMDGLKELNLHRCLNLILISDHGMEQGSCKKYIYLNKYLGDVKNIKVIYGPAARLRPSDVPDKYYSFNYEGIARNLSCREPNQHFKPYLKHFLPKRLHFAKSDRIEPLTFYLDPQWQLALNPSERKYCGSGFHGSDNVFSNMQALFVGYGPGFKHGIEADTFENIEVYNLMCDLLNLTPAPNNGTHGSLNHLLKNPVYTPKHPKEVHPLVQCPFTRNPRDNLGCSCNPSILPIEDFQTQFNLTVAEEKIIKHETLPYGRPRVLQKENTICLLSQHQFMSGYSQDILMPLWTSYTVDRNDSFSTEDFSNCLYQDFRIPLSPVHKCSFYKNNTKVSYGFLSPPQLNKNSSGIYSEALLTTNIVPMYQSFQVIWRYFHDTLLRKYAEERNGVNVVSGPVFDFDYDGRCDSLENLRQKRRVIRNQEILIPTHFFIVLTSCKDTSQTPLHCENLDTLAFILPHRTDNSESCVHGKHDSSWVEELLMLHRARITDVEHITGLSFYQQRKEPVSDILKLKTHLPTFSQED
One may read the IC50 as the midpoint of a concentration-inhibition curve. A lower IC50 goes with higher potency. Take `COc1ccc2c(Nc3ccc(CC(=O)NO)cc3)ccnc2c1` [Compound 4]: inhibition was half-maximal at 2.62 nM (IC50).

For the molecule `COc1cccc2c(Oc3ccc(CC(=O)NO)cc3)c(C#N)cnc12` [Compound 5], the IC50 stood at 150 nM. On to `COc1ccc2c(Oc3ccc(CC(=O)NO)cc3)ncnc2c1` [Compound 8], for which it took 2.17 nM to reach half-maximal inhibition (IC50). Then `COc1ccc2c(Nc3ccc(CC(=O)NO)cc3)ncnc2c1` [Compound 10], with 2.7 nM; and `COc1cc2ncnc(Oc3ccc(CC(=O)NO)cc3)c2cc1OC` [Compound 11], with 28 nM; and `COc1cc2nccc(Oc3ccc(CC(=O)NO)cc3)c2cc1F` [Compound 13], with 1.37 nM. The value for `COc1ccc2c(Oc3ccc(CC(=O)NO)cc3)c(C#N)cnc2c1` [Compound 14] was 1.2 nM; that for `Cn1ncc2c(Nc3ccc(CC(=O)NO)cc3)ncnc21` [Compound 15] was 19 nM; that for `O=C(Cc1ccc(Nc2ncnc3ccccc23)cc1)NO` [Compound 16] was 64 nM. The value for `Cn1c(=O)ccc2c(Nc3ccc(CC(=O)NO)cc3)ccnc21` [Compound 18, N-hydroxy-2-(4-((8-methyl-7-oxy-7,8-dihydro-1,8-naphthyridin-4-yl)amino)phenyl)acetamide] was 343 nM. Molecule `COc1cc2nccc(Oc3ccc(CC(=O)NO)cc3)c2cn1` [Compound 19] showed an IC50 of 2.9 nM.

`COc1cnc2c(Oc3ccc(CC(=O)NO)cc3)ccnc2c1` [Compound 20] had an IC50 of 324 nM. This IC50 lies about 110-fold higher than the previous one. The molecule `COc1ccc2c(Oc3ccc(CC(=O)NO)cc3C)ccnc2n1` [Compound 21] showed an IC50 of 3.1 nM. In the case of `COc1ccc2c(Nc3ccc(CC(=O)NO)cc3)nc(Cl)nc2c1` [Compound 22], the IC50 was 1.8 nM. The value for `Cc1cc(Nc2ncnc3ccccc23)ccc1CC(=O)NO` [Compound 24] was 36 nM; that for `COc1ccc2c(Oc3ccc(CC(=O)NO)c(F)c3)ccnc2n1` [Compound 25] was 1.9 nM; that for `COc1ccc2c(Oc3ccc(CC(=O)NO)cc3F)ccnc2n1` [Compound 26] was 1.3 nM.

The molecule `COc1ccc2c(Oc3ccc(C(C)C(=O)NO)cc3)ccnc2n1` (stereo not drawn) [Compound 27] came in with an IC50 of 2.1 nM. Compared with the last molecule, the IC50 is about 1.6-fold higher. The value for `Cn1ncc2c(Oc3ccc(CC(=O)NO)cc3)ccnc21` [Compound 28] was 14 nM. Then `Cn1ncc2ncnc(Nc3ccc(CC(=O)NO)cc3)c21` [Compound 29], with 14 nM; and `O=C(Cc1ccc(Nc2ncnc3nc(O)ccc23)cc1)NO` [Compound 31], with 20 nM; and `CCn1ncc2c(Nc3ccc(CC(=O)NO)cc3)ncnc21` [Compound 33], with 2.4 nM. `O=C(Cc1ccc(Nc2ncnc3c2cnn3C2CC2)cc1)NO` [Compound 34] yielded an IC50 of 376 nM.

On to `O=C(Cc1ccc(Nc2ncnc3cnccc23)cc1)NO` [Compound 35], for which the IC50 stood at 49 nM. The value for `CC(C(=O)NO)c1ccc(Oc2ccnc3c2cnn3C)cc1` (stereo not drawn) [Compound 36] was 24 nM. Then `COc1ccc2c(Nc3ccc(CC(=O)NO)cc3)nc(C)nc2n1` [Compound 37], with 2.4 nM. With `COc1ccc2c(Oc3ccc(C(O)C(=O)NO)cc3)ccnc2n1` (stereo not drawn) [Compound 38], half-maximal inhibition (IC50) required 4.4 nM. The value for `O=C(Cc1ccc(Nc2ncnc3ncccc23)cc1)NO` [Compound 39] was 205 nM; that for `Cn1ncc2c(Nc3ccc(CC(=O)NO)cc3)ccnc21` [Compound 40] was 4.8 nM; that for `Cn1ncc2c(Oc3ccc(C(C)(C)C(=O)NO)cc3)ccnc21` [Compound 41] was 3 nM. On to `COc1ccc2c(Nc3ccc(CC(=O)NO)nc3)ccnc2n1` [Compound 44], for which 2.7 nM corresponded to half-maximal inhibition (IC50). Then `COc1ccc2c(Nc3ccc(CC(=O)NO)cn3)ccnc2n1` [Compound 45], with 3.1 nM.

For the molecule `COc1ccc2c(Oc3cc(F)c(C(C)(C)C(=O)NO)c(F)c3)ccnc2n1` [Compound 46], inhibition was half-maximal at 16 nM (IC50). Take `COc1ccc2c(Nc3cc(F)c(C(C)C(=O)NO)cc3F)ccnc2n1` (stereo not drawn) [Compound 47]: it took 4.5 nM to reach half-maximal inhibition (IC50). As to `COc1ccc2c(Nc3cc(F)c(C(C)C(=O)NO)c(F)c3)ccnc2n1` (stereo not drawn) [Compound 48], the IC50 stood at 2.7 nM. This IC50 is about 1.7-fold lower than that of the molecule before. Then `CCn1ncc2c(Nc3ccc(CC(=O)NO)cc3)ccnc21` [Compound 49], with 1.4 nM; and `COc1ccc2c(Nc3ccc4c(c3)CCC4C(=O)NO)ccnc2n1` (stereo not drawn) [Compound 51], with 2.5 nM; and `COc1ccc2c(Nc3cc(F)c(CC(=O)NO)cc3F)ccnc2n1` [Compound 52], with 2.2 nM. Then `CCn1ncc2c(Oc3ccc(C(C)(C)C(=O)NO)cc3)ccnc21` [Compound 53], with 2.9 nM; and `CCn1ncc2c(Oc3ccc(C4(C(=O)NO)CC4)cc3)ccnc21` [Compound 54], with 1.6 nM; and `Cc1nn(C)c2nccc(Nc3ccc(CC(=O)NO)cc3)c12` [Compound 55], with 4.3 nM. As to `CCn1ncc2c(Nc3ccc(CC(=O)NO)c(OC)c3)ccnc21` [Compound 56], 2.3 nM corresponded to half-maximal inhibition (IC50). Then `O=C(Cc1ccc(Nc2ncnc3c2cnn3CC(F)(F)F)cc1)NO` [Compound 57], with 513 nM; and `Cc1cc(Oc2ccc(C(C)(C)C(=O)NO)cc2)c2cnn(C)c2n1` [Compound 58], with 41 nM; and `COc1ccc2c(Nc3ccc4c(c3)OCC4C(=O)NO)ccnc2n1` (stereo not drawn) [Compound 59], with 1.8 nM. As for `Cc1ccc2c(Nc3ccc(CC(=O)NO)cc3)ncnc2n1` [Compound 60], the IC50 was 673 nM. As for `COc1ccc2c(Nc3ccc(C(C)C(=O)NO)c(F)c3)ccnc2n1` (stereo not drawn) [Compound 61], half-maximal inhibition (IC50) required 1.7 nM. The molecule `COc1ccc2c(Nc3c(F)cc(C(C)C(=O)NO)cc3F)ccnc2n1` (stereo not drawn) [Compound 62] gave a concentration for half-maximal inhibition (IC50) of 1.6 nM. The value for `COc1ccc2c(Oc3cccc(C(=O)NO)c3)ccnc2n1` [Compound 63] was 212 nM; that for `CCn1ncc2c(Nc3ccc(C(C)C(=O)NO)c(F)c3)ccnc21` (stereo not drawn) [Compound 65] was 1.9 nM. The value for `COc1ccc2c(Oc3ccc(C(C)(C)C(=O)NO)cc3)cc(C)nc2n1` [Compound 67] was 1.7 nM; that for `COc1ccc2c(Nc3ccc(C(C)(C)C(=O)NO)cc3)ccnc2n1` [Compound 69] was 1.9 nM. Turning to `COc1ccc2c(Nc3cc(F)c(CC(=O)NO)c(F)c3)ccnc2n1` [Compound 70], half-maximal inhibition (IC50) was put at 1.7 nM. Then `COc1ccc2c(Nc3c(F)cc(CC(=O)NO)cc3F)ccnc2n1` [Compound 71], with 1.8 nM; and `COc1ccc2c(Oc3ccc(C(C)C(=O)NO)cc3F)ccnc2n1` (stereo not drawn) [Compound 72], with 2.2 nM; and `CCn1ncc2c(Oc3ccc(C(C)C(=O)NO)cc3)ccnc21` (stereo not drawn) [Compound 73], with 8.6 nM. Then `CCn1nc(C)c2c(Nc3ccc(CC(=O)NO)cc3)ncnc21` [Compound 74], with 7.8 nM; and `COc1ccc2c(Oc3cccc(CC(=O)NO)c3)ccnc2n1` [Compound 75], with 112 nM. The value for `CCn1ncc2c(Oc3cccc(C(=O)NO)c3)ccnc21` [Compound 76] was 289 nM. Turning to `CCn1ncc2c(Nc3ccc(CC(=O)NO)c(Cl)c3)ccnc21` [Compound 77], the IC50 was 1.2 nM. This IC50 is about 240-fold lower than that of the molecule before. Then `COc1ccc2c(Nc3ccc(CC(=O)NO)c(Cl)c3)ccnc2n1` [Compound 78], with 1.8 nM; and `COc1ccc2c(Nc3ccc(CC(=O)NO)c(OC)c3)ccnc2n1` [Compound 79], with 1.9 nM. Then `Cn1ncc2c(Oc3ccc(C4(C(=O)NO)CC4)cc3)ccnc21` [Compound 80], with 1.9 nM; and `Cn1ncc2c(Nc3ccc(C(C)(C)C(=O)NO)cc3)ccnc21` [Compound 81], with 1.9 nM; and `CCn1ncc2c(Nc3ccc(C(C)(C)C(=O)NO)cc3)ccnc21` [Compound 82], with 1.7 nM. Then `CCn1nc(C)c2c(Nc3ccc(C(C)(C)C(=O)NO)cc3)ncnc21` [Compound 83], with 4.4 nM. The molecule `Cc1nn(C)c2nccc(Oc3ccc(C(C)(C)C(=O)NO)cc3)c12` [Compound 84] yielded a half-maximal inhibitory concentration (IC50) of 6.1 nM.

`COc1ccc2c(Oc3ccc(C(OC)C(=O)NO)cc3)ccnc2n1` (stereo not drawn) [Compound 85] yielded an IC50 of 4.8 nM. This IC50 and that of the molecule before are within 1.5-fold of each other. Turning to `COc1ccc2c(N[C@H]3CC[C@H](CC(=O)NO)CC3)ccnc2n1` [Compound 89], the midpoint of inhibition, the IC50, lay at 24 nM. Regarding `COc1ccc2c(Nc3cnn(CC(=O)NO)c3)ccnc2n1` [Compound 90], the midpoint of inhibition, the IC50, lay at 4.5 nM. Then `CCn1ncc2c(Nc3ccc(C(C)(C)C(=O)NO)cc3)ncnc21` [Compound 91], with 1.2 nM. `COc1ccc2c(Oc3ccc4c(C(=O)NO)cccc4c3)ccnc2n1` [Compound 92] displayed a half-maximal inhibitory concentration (IC50) of 169 nM.

In turn, `CC(C)(C(=O)NO)c1ccc(Oc2ccnc3cc(Cl)ccc23)cc1` [Compound 94] yielded an IC50 of 257 nM.

Molecule `COc1ccc2c(Nc3ccc(CC(=O)NO)c4ccccc34)ccnc2n1` [Compound 96] showed an IC50 of 6.8 nM. The molecule `COc1cc2nccc(Oc3ccc(C(C)(C)C(=O)NO)cc3)c2cn1` [Compound 97] returned an IC50 of 1.5 nM. The value for `CCOc1ccc2c(Oc3ccc(CC(=O)NO)cc3)ccnc2c1` [Compound 98] was 125 nM. Turning to `COc1ccc2nccc(Oc3ccc(C(C)(C)C(=O)NO)cc3)c2c1` [Compound 99], it took 63 nM to reach half-maximal inhibition (IC50). The value for `COc1ccc2c(Nc3ccc(C(C)(C)C(=O)NO)cn3)ccnc2n1` [Compound 101] was 1.1 nM; that for `COc1ccc2c(Oc3ccc(C(C)(C)C(=O)NO)c(Cl)c3)ccnc2n1` [Compound 103] was 21 nM. For `COc1ccc2c(Oc3ccc(C(C)(C)C(=O)NO)c(C)c3)ccnc2n1` [Compound 109], the half-inhibitory concentration (IC50) was 2.3 nM. `COc1ccc2c(Oc3cc(F)c(C(C)(C)C(=O)NO)cc3F)ccnc2n1` [Compound 112] had an IC50 of 2.5 nM. Then `COc1ccc2c(C(C)c3ccc(C(C)(C)C(=O)NO)cc3)ccnc2n1` (stereo not drawn) [Compound 113], with 219 nM. The value for `COc1ccc2c(N(C)c3ccc(C(C)(C)C(=O)NO)cc3)ccnc2n1` [Compound 114] was 162 nM; that for `COc1ccc2c(OC3CCN(C(C)(C)C(=O)NO)CC3)ccnc2n1` [Compound 116] was 21 nM.
